From patent US20030039957A1, “Functional protein expression for rapid cell-free phenotyping” (priority 2000, published 2003)
In brackets after ≈: the same amount, converted by molar mass. Read-outs that look alike come from different tables or passages of the source.

How the values were obtained:
[1] = system: HIV reverse transcriptase, patient-derived protein; assay type: biochemical, HIV-1
Source text: The PCR-generated DNA templates were expressed into HIV reverse transcriptase and protease using a coupled reticulocyte lysate system, TNT T7 Quick for PCR DNA (Promega, Madison, Wis.). Sizes of the proteins, as well as a confirmation of their integrity, was confirmed by Western Blot.

HIV = conditions: cited from earlier work
[2] = system: mutant DNA gyrase A protein; experiment: Supercoiling inhibition and DNA cleavage assays; assay type: biochemical, Streptococcus pneumoniae; conditions: for MIC relative to maximal serum drug concentrations reported for standard dosage regimens: enzyme inhibition or DNA cleavage assays
Method: (§1) The functional activity of the purified mutant DNA gyrase A protein obtained from the fluoroquinolone resistant Streptococcus pneumoniae was compared to wild-type DNA gyrase A protein in supercoiling inhibition assays and DNA cleavage assays as described in Pan et al., and Barnard et al., supra. A concentration range of antibiotics was added to contact both the wild-type and mutant proteins. In addition, the affinities for each antibiotic and both the wild-type and mutant proteins were derived according to the method described in Roychoudhury, et al., supra.

wild-type DNA Gyrase A = biological target: T1, wild-type DNA Gyrase A (Streptococcus pneumoniae serotype 4, UniProt P0A4L9+P72524); experiment: Binding assays (affinity), wild-type gyrase A
T1 construct: A 100 kDa protein, corresponding to the DNA gyrase A protein, was produced from this eukaryotic expression system; made in house; host or cells: cell-free coupled reticulocyte lysate (TNT T7 Quick for PCR DNA, Promega)
Method: as §1

mutant DNA Gyrase A = experiment: Binding assays (affinity), mutant gyrase A; set-up: species or system Streptococcus pneumoniae
Method: as §1

[3] = system: DNA gyrase versus topoisomerase IV; experiment: Ratio of affinity parameter, DNA gyrase to control protein topoisomerase IV; assay type: binding, Streptococcus pneumoniae
[4] = biological target: T2, mutant lanosterol 14 alpha-demethylase proteins (Candida albicans, UniProt P10613); experiment: Prevention of CO-complex formation with reduced cytochrome P450, mutant; assay type: binding, C. albicans; conditions: mutant proteins
T2 construct: IC50; other: mutant proteins; other: at 100 nM; A 60 kDa protein, corresponding to the lanosterol 14 alpha-demethylase protein, was produced from this eukaryotic expression system
Method: (§2) Microsomes were isolated from C. albicans as described in Marichal, P., et al., Microbiology (1999), 145, 2701-2713, incorporated herein by reference. Prevention of CO-complex formation in the reduced microsomal cytochrome P450 preparation provides an assay that can be used to test the affinity of the protein for an azole. The P-450 content and the effects of azoles on the interaction of CO with the reduced haem iron of P-450 were measured as described in Vanden Bossche, H., et al., Drug Dev Res, 8:287-298 (1986), incorporated herein by reference. The assay employed 0.1 nmol cytochrome P450 and 100 pM to 100 μM ranges of the anti-fungal compounds itraconazole and fluconazole.

[5] = system: mutant lanosterol 14 alpha-demethylase proteins; experiment: as above; assay type: binding, C. albicans; conditions: mutant versus wild-type
Method: as §2

S. cerevisiae AD1-8u(−) = conditions: Nakamura 2001; cited from earlier work
[6] = system: strain AD 1002 overexpressing C. albicans Cdr1p; conditions: strain AD 1002 overexpressing Cdr1p, Nakamura 2001; cited from earlier work
[7] = biological target: T3, wild-type lanosterol 14 alpha-demethylase protein (Candida albicans, UniProt P10613); experiment: Prevention of CO-complex formation with reduced cytochrome P450, wild-type; assay type: binding, C. albicans; set-up: A 60 kDa protein, corresponding to the lanosterol 14 alpha-demethylase protein, was produced from this eukaryotic expression system; made in house; conditions: wild-type proteins
Method: as §2

[8] = biological target: wild-type HCV NS5B RNA-dependent RNA polymerase (Hepatitis C virus genotype 2b, UniProt Q9DHD6); assay type: biochemical
[9] = system: patient derived HCV NS5B RNA-dependent RNA polymerase; assay type: biochemical, hepatitis C virus
[10] = biological target: T3, wild-type lanosterol 14 alpha-demethylase protein; set-up: A 60 kDa protein, corresponding to the lanosterol 14 alpha-demethylase protein, was produced from this eukaryotic expression system; made in house; host or cells: cell-free coupled reticulocyte lysate (TNT T7 Quick for PCR DNA, Promega); conditions: typically reported; cited from earlier work
[11] = biological target: wild-type HBV polymerase (HBV-WT) (Hepatitis B virus genotype A2 subtype adw2, UniProt P03159); experiment: DNA polymerase assay (non-radioactive, sandwich ELISA) with cell-free expressed HBV polymerase; conditions: read-out: IC50, inhibition of DNA polymerase activity, FIG. 3, approximate
Sequence of wild-type HBV polymerase (HBV-WT) (P03159 whole entry): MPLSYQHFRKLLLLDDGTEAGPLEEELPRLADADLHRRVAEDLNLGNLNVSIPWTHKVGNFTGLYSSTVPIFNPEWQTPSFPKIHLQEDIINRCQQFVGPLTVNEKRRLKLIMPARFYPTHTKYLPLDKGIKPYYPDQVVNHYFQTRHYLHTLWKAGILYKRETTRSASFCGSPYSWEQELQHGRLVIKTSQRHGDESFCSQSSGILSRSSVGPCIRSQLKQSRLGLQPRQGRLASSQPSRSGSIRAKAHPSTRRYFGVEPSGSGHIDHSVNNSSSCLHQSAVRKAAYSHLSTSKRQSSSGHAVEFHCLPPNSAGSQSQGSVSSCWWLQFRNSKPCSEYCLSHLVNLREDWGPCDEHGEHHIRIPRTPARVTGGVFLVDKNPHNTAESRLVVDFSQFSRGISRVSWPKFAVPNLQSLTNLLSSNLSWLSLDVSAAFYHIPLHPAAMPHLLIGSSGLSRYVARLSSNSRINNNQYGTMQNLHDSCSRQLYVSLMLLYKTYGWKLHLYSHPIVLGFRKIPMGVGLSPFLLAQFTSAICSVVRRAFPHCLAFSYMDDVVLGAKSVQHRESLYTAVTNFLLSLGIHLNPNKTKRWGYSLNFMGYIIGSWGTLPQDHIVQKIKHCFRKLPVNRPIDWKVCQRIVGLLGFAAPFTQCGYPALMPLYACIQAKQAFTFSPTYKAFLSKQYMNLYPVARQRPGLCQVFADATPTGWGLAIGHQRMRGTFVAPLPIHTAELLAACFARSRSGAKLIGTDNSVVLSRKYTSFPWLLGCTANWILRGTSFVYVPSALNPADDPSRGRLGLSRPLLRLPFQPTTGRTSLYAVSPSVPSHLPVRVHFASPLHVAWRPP
Source text: A sensitive DNA polymerase assay (Roche Molecular Biochemicals, Indianapolis, Ind.) was used to determine the DNA polymerase activity of the expressed HBV polymerase proteins. […] The DNA polymerase assay as shown provides a non-radioactive assay, which measures the ability of the enzyme to digoxigenin and biotin labeled nucleotides into freshly synthesized DNA. The detection of synthesized DNA as a parameter for DNA polymerase activity follows a sandwich ELISA protocol—biotin labeled nucleic acid binds the surface of a microtiter plate coated with streptavidin. An anti-digoxigenin antibody conjugated to peroxidase is incubated with the nucleic acid. Upon addition of the peroxidase substrate, a color change occurs corresponding to the peroxidase activity, which is detected by a microplate ELISA reader. The absorbance samples is directly correlated to the level of DNA polymerase activity in the sample. […] In FIG. 1, HBV-WT refers to the wild-type HBV polymerase. […] PC and NC refer respectively to positive and negative controls. Briefly, the positive control includes Klenow enzyme in polymerase buffer. The negative control includes reticulcyte lysate without the DNA amplicon.
Inhibition of DNA polymerase activity (%) was plotted against compound concentration. […]

T3 sequence (P10613 whole entry): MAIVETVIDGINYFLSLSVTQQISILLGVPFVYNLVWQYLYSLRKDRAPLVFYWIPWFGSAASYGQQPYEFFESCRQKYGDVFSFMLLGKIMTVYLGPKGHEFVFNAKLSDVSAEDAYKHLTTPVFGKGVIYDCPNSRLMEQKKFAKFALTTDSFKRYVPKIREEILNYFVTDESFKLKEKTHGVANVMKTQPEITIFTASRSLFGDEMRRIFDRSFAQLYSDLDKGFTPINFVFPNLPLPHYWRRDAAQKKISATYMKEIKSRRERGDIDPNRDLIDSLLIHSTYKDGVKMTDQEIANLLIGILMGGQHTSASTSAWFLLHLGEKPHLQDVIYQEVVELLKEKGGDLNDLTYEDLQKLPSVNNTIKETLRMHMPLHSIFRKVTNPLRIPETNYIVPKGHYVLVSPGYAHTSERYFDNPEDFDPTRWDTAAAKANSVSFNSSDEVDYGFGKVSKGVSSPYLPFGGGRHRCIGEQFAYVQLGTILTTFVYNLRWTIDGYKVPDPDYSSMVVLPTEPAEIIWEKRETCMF
T2 sequence (P10613 whole entry, looked up, stated change not applied): as the sequence (P10613 whole entry) above
Sequence of wild-type HCV NS5B RNA-dependent RNA polymerase (Q9DHD6 2443-3033 limits assumed): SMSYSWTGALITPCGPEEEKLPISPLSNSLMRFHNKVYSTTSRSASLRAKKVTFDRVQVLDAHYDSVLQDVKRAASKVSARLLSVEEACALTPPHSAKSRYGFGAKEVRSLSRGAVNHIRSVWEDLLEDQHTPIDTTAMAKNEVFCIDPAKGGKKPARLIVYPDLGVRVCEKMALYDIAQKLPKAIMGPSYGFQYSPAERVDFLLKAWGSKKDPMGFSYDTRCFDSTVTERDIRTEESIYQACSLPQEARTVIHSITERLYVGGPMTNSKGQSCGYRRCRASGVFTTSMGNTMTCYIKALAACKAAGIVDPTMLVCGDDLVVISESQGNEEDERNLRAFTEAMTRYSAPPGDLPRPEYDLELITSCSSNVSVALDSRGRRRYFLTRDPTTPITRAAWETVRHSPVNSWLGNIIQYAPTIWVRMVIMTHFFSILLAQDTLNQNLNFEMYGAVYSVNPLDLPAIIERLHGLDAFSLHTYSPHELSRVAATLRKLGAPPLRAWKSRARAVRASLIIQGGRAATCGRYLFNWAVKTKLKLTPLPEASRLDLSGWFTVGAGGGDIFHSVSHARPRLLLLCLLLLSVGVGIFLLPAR
T1 sequence (P0A4L9 whole entry): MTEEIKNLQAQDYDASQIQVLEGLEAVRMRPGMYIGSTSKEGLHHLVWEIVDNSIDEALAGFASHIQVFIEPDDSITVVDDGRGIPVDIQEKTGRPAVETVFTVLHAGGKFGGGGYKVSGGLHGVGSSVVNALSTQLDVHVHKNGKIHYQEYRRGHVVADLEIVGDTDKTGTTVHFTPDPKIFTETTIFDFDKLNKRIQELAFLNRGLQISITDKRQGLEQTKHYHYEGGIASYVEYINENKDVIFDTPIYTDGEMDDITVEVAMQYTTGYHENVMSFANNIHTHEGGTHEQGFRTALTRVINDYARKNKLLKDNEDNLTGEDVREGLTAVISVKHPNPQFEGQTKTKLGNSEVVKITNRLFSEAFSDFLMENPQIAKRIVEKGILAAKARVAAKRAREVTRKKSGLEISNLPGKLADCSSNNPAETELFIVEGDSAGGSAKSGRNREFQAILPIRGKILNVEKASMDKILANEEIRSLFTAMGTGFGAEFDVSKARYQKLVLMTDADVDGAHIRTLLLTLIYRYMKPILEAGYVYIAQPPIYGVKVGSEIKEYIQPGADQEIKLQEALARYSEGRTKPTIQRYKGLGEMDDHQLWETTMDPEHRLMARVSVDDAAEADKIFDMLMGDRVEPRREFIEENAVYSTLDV
T1 sequence (P72524 whole entry): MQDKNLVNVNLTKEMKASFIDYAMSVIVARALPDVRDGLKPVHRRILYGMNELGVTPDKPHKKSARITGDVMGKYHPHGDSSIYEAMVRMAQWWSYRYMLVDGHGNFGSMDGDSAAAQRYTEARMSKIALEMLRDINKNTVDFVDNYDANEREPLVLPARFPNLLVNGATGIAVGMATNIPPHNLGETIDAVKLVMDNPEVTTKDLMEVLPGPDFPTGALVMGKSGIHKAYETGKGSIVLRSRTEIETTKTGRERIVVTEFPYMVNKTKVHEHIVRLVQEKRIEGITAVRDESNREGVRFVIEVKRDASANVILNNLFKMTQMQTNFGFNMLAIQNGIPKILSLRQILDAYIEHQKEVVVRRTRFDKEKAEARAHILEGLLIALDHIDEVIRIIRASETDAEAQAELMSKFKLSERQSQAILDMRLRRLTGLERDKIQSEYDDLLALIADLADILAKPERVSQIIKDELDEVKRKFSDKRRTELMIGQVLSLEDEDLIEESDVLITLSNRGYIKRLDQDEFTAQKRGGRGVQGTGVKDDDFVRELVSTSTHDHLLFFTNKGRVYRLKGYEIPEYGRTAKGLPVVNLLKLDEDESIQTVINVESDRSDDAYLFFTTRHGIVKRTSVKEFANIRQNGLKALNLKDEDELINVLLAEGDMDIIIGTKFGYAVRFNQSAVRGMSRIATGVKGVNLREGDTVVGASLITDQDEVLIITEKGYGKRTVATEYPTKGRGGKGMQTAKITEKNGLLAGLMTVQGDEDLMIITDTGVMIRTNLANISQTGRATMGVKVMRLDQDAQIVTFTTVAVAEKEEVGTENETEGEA

Question: For `Cc1cn([C@H]2C[C@H](N=[N+]=[N-])[C@@H](CO)O2)c(=O)[nH]c1=O` [AZT, zidovudine], which “difference in the IC50 value, patient sample versus wild-type” value [1] is on record?
Answer: Its value is “five-fold”.

Question: And the “reduction of virus replication” value (HIV)?
Answer: The value was “about 90%”.

Question: Which “MIC relative to maximal serum drug concentrations reported for standard dosage regimens” value [2] does the source give for `NC1CCN(c2c(F)cc3c(=O)c(C(=O)O)cn(C4CC4)c3c2Cl)C1` (centres unmarked) [clinafloxacin] here?
Answer: Its value is “below the maximal serum concentrations”.

Question: And the “affinity compared with ciprofloxacin, trovafloxacin, gatifloxacin, gemifloxacin and moxifloxacin” value (wild-type DNA Gyrase A)?
Answer: The value was “higher affinities”.

Question: What about the “affinity compared with ciprofloxacin, trovafloxacin, gatifloxacin, gemifloxacin and moxifloxacin” value (mutant DNA Gyrase A) of the same molecule?
Answer: The value was “higher affinities”.

Question: What about the “ratio of the calculated affinity parameter for DNA gyrase to that for topoisomerase IV, compared with ciprofloxacin and trovafloxacin” value [3] of the same molecule?
Answer: The value was “lower”.

Question: For `OC(Cn1cncn1)(Cn1cncn1)c1ccc(F)cc1F` [fluconazole], which IC50 [4] is on record?
Answer: Its IC50 is about 4880 nM.

Question: What about the “range of IC50 values, wild-type to mutant” value [5] of the same molecule?
Answer: The value was “more than 100 fold”.

Question: And the MIC(80), MIC at which 80% of cells were inhibited (S. cerevisiae AD1-8u(−))?
Answer: Its MIC(80), MIC at which 80% of cells were inhibited is 0.625 µg/mL.

Question: And the MIC(80) [6]?
Answer: The MIC(80) was 30 µg/mL (≈ 98 µM).

Question: What about the IC50 [7] of the same molecule?
Answer: The IC50 was 40 nM.

Question: With `COc1c(N2CCNC(C)C2)c(F)cc2c(=O)c(C(=O)O)cn(C3CC3)c12` (centres unmarked) [gatifloxacin] as the molecule, how does the “MIC relative to maximal serum drug concentrations reported for standard dosage regimens” value [2] read?
Answer: Its value is “above the maximal serum drug concentrations”.

Question: And the “ratio of the calculated affinity parameter for DNA gyrase to that for topoisomerase IV, compared with ciprofloxacin and trovafloxacin” value [3]?
Answer: The value was “lower”.

Question: For `CO/N=C1\CN(c2nc3c(cc2F)c(=O)c(C(=O)O)cn3C2CC2)CC1CN` (centres unmarked) [gemifloxacin], which “MIC relative to maximal serum drug concentrations reported for standard dosage regimens” value [2] is on record?
Answer: The value was “below the maximal serum concentrations”.

Question: Which “effect on RdRp activity” value [8] does the source give for `CN1C(=O)[C@]23CC4=CC=C[C@H](O)[C@H]4N2C(=O)[C@@]1(CO)SS3` [gliotoxin] here?
Answer: Its value is “inhibited HCV NS5B RdRp of both wild-type and patient derived proteins in a dose-dependent manner”.

Question: And the “effect on RdRp activity” value [9]?
Answer: Its value is “inhibited HCV NS5B RdRp of both wild-type and patient derived proteins in a dose-dependent manner”.

Question: For `Cc1c(F)c(N2CCNC(C)C2)cc2c1c(=O)c(C(=O)O)cn2C1CC1` (centres unmarked) [grepafloxacin], which “MIC relative to maximal serum drug concentrations reported for standard dosage regimens” value [2] is on record?
Answer: The value was “above the maximal serum drug concentrations”.

Question: Which IC50 [4] does the source give for `CCC(C)n1ncn(-c2ccc(N3CCN(c4ccc(OCC5COC(Cn6cncn6)(c6ccc(Cl)cc6Cl)O5)cc4)CC3)cc2)c1=O` (centres unmarked) [itraconazole] here?
Answer: The IC50 was 30 to 75 nM.

Question: What about the IC50 [10] of the same molecule?
Answer: Its IC50 is 10 to 50 nM.

Question: For `CC(=O)N1CCN(c2ccc(OCC3COC(Cn4ccnc4)(c4ccc(Cl)cc4Cl)O3)cc2)CC1` (centres unmarked) [ketoconazole], which MIC(80) [6] is on record?
Answer: Its MIC(80) is 0.5 µg/mL (≈ 0.941 µM).

Question: Which IC50 [11] does the source give for `Nc1ccn([C@@H]2CS[C@H](COP(=O)(O)OP(=O)(O)OP(=O)(O)O)O2)c(=O)n1` [lamivudine-TP] here?
Answer: Its IC50 is about 50 nM.

Question: With `CN[C@@H](C)[C@@H]1CCN(c2c(F)cc3c(=O)c(C(=O)O)cn(C4CC4)c3c2OC)C1` [premafloxacin] as the molecule, how does the “fold increase in inhibitory concentration of mutant versus wild-type enzyme” value [2] read?
Answer: Its value is 32 fold.

Question: With `NC(=O)c1ncn([C@@H]2O[C@H](COP(=O)(O)OP(=O)(O)OP(=O)(O)O)[C@@H](O)[C@H]2O)n1` [ribavirin triphosphates] as the molecule, how does the “effect on RdRp activity” value ([8]; wild-type NS5B protein) read?
Answer: The value was “no inhibitory effect”.

Question: And the “effect on RdRp activity” value [9]?
Answer: Its value is “no inhibitory effect”.

Question: Which “fold increase in inhibitory concentration of mutant versus wild-type enzyme” value [2] does the source give for `C[C@@H]1CN(c2c(F)c(N)c3c(=O)c(C(=O)O)cn(C4CC4)c3c2F)C[C@H](C)N1` [sparfloxacin] here?
Answer: Its value is “about 4 fold”.

Question: For `N[C@@H]1[C@H]2CN(c3nc4c(cc3F)c(=O)c(C(=O)O)cn4-c3ccc(F)cc3F)C[C@@H]12` [trovafloxacin], which “MIC relative to maximal serum drug concentrations reported for standard dosage regimens” value [2] is on record?
Answer: Its value is “above the maximal serum drug concentrations”.
